# Read-outs that look alike come from different tables or passages of the source.
# Legend:
# [1] = molecular target: T1, human KDR (VEGF-receptor-2) (Homo sapiens, UniProt P35968); assay: KDR kinase enzyme assay (DELFIA, KDR-IC-Flag, poly(Glu4-Tyr) peptide); format: biochemical; conditions: for inhibition at 0.1 µM: Concentration 100 nM; for inhibition at 1 µM: Concentration 1000 nM
# T1 construct: beginning at Met-806; (5′-ATG GAT CCA GAT GM CTC CCA TTG) and ending at Val-1356; made in house
# KDR = KDR (Homo sapiens, UniProt P35968); assay: cell-based; conditions: read-out: % Inhibition of KDR kinase autophosphorylation in KDR15 cells, compound conc. 1000 nM
# [2] = tested on: Human umbilical vein endothelial cells (HUVEC); assay: HUVEC proliferation assay, VEGF-dependent growth ([3H]-thymidine incorporation); format: cell-based; conditions: Homo sapiens, HUVEC
# Protocol: Cells were plated into 96-well dishes (4000 cells per well) and allowed to attach overnight. HUVEC were rinsed one time with 100 μl of EBMc-V (EBM supplemented with all above components except serum or VEGF), then 50 ul of EBMc-V was added to cells. Compounds were prepared at 200× stocks in DMSO, diluted into EBMc-V media as 4× stocks, then 50 ul added to appropriate wells. Finally, 100 μl of 2×VEGF (100 ng/ml prepared in EBMc-V; final 50 ng/ml VEGF) was added to all VEGF-treated wells. EBMc-V (no VEGF) was added to negative control wells. Parallel compound-treated plates were prepared except that 100 μl of EGM2 media containing 2% serum but lacking VEGF (EGMc-V) was added. Cells were incubated for 4-5 days at 37° C.
# DNA synthesis was assessed by thymidine incorporation. Cells were incubated for 5 hours in 1 μCi of [^3H]-thymidine (PerkinElmer) by addition of 10 ul of 0.1 μCi/ul thymidine prepared in PBS to each well. After incubation, media was aspirated and the cells trypsinized and collected onto a mat using a vacuum-based Micro Cell Harvester (Skatron). [^3H]-thymidine was counted in a liquid scintillation counter. Compounds evaluated for ability to inhibit VEGF-dependent growth of human umbilical vein endothelial cells (HUVEC).
# [3] = ATP conc. 10 μM, read-out: % Inhibition
# [4] = ATP conc. 1000 μM, read-out: % Inhibition
# T1 sequence (P35968 806-1356): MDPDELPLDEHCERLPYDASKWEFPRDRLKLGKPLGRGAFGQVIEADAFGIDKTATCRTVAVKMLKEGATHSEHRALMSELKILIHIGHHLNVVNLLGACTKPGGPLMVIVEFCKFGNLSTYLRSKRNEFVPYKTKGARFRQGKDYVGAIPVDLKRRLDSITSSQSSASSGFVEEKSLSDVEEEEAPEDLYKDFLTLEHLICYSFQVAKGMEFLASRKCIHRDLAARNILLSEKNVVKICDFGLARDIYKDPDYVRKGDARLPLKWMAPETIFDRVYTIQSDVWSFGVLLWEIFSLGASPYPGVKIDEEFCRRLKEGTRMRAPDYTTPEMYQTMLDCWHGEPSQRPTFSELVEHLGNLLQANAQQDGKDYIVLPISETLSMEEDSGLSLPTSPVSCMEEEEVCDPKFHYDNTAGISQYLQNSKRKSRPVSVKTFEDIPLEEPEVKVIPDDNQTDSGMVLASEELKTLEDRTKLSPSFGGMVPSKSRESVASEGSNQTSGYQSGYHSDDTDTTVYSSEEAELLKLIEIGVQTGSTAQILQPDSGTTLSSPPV
# KDR, sequence (P35968 20-1356): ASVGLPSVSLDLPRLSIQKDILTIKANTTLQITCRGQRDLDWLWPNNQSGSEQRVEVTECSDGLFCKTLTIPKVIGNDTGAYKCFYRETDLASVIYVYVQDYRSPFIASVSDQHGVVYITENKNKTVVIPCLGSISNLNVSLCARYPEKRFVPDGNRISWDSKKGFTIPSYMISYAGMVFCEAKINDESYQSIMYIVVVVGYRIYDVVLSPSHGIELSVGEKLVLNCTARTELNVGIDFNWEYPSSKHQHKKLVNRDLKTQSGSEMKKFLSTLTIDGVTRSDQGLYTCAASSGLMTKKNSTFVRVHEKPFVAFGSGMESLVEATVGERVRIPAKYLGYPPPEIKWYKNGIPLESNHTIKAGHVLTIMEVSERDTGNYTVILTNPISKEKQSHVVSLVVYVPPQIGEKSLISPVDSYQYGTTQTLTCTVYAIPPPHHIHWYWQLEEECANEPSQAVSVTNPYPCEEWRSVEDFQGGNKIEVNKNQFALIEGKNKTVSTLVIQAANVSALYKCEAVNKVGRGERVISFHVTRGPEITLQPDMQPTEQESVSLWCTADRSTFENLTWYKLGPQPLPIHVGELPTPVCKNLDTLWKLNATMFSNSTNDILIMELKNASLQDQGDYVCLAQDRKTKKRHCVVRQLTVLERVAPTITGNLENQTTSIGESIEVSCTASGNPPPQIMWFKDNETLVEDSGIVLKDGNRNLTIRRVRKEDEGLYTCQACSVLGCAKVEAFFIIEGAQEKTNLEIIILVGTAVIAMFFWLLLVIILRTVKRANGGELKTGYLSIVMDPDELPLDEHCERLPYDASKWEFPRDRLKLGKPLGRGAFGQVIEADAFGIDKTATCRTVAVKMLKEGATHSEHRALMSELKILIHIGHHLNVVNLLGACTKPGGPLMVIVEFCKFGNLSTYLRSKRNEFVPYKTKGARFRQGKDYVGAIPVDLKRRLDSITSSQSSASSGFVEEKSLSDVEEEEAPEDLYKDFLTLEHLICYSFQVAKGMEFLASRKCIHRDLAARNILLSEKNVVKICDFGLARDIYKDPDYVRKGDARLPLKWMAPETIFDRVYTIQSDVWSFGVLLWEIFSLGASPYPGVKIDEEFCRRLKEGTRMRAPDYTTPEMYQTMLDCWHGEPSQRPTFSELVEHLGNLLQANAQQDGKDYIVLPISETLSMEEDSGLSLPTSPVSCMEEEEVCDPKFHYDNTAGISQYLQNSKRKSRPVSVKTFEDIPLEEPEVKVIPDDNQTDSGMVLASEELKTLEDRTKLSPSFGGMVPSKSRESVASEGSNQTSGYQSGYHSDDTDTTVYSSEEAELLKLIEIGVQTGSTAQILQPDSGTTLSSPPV
Compound,"inhibition at 0.1 µM [1, 3]","inhibition at 1 µM [1, 3]","inhibition at 1 µM [1, 4]",inhibition at 1 µM (KDR),IC50 ([1]; ATP conc. 10 μM),inhibition at 0.1 µM ([1]; ATP conc. 10 μM),inhibition at 1 µM ([1]; ATP conc. 10 μM),inhibition at 1 µM ([1]; ATP conc. 1000 μM),inhibition at 0.1 µM ([2]; conc. 100 nM),inhibition at 1 µM ([2]; conc. 1000 nM),inhibition at 10 µM ([2]; conc. 10000 nM)
"COCCOc1cc2ncnc(NC3=CC(=O)C(Oc4cccc(OC)c4)=CC3=O)c2cc1OC [Example 28, 2-{[6-methoxy-7-(2-methoxyethoxy)quinazolin-4-yl]amino}-5-(3-methoxyphenoxy)benzo-1,4-quinone]",,,,35%,12.1 nM,83%,96%,98%,,,
"COCCOc1cc2ncnc(NC3=CC(=O)C(Oc4ccc(Oc5ccccc5)cc4)=CC3=O)c2cc1OC [Example 29, 2-{[6-methoxy-7-(2-methoxyethoxy)quinazolin-4-yl]amino}-5-(4-phenoxyphenoxy)benzo-1,4-quinone]",,,,30%,37.7 nM,62%,92%,95%,,,
"COCCOc1cc2ncnc(NC3=CC(=O)C(Oc4cccc(Cl)c4)=CC3=O)c2cc1OC [Example 33, 2-(3-chlorophenoxy)-5-{[6-methoxy-7-(2-methoxyethoxy)quinazolin-4-yl]amino}benzo-1,4-quinone]",,,,19%,,84%,96%,98%,,,
"COCCOc1cc2ncnc(NC3=CC(=O)C(Oc4ccc(SC)cc4)=CC3=O)c2cc1OC [Example 35, 2-{[6-methoxy-7-(2-methoxyethoxy)quinazolin-4-yl]amino}-5-[4-(methylthio)phenoxy]benzo-1,4-quinone]",,,,39%,,87%,96%,98%,,,
"CCOC(=O)Cc1ccc(OC2=CC(=O)C(Nc3ncnc4cc(OCCOC)c(OC)cc34)=CC2=O)cc1 [Example 37, ethyl {4-[(4-{[6-methoxy-7-(2-methoxyethoxy)quinazolin-4-yl]amino}-3,6-dioxocyclohexa-1,4-dien-1-yl)oxy]phenyl}acetate]",89%,93%,,11%,,,,,,,
"COCCOc1cc2ncnc(NC3=CC(=O)C(Oc4ccc(CCC(=O)OC)cc4)=CC3=O)c2cc1OC [Example 40, methyl 3-{4-[(4-{[6-methoxy-7-(2-methoxyethoxy)quinazolin-4-yl]amino}-3,6-dioxocyclohexa-1,4-dien-1-yl)oxy]phenyl}propanoate]",92%,94%,,110%,,,,,,,
"COCCOc1cc2ncnc(NC3=CC(=O)C(Oc4ccc(C(=O)OC)cc4)=CC3=O)c2cc1OC [Example 42, methyl 4-[(4-{[6-methoxy-7-(2-methoxyethoxy)quinazolin-4-yl]amino}-3,6-dioxocyclohexa-1,4-dien-1-yl)oxy]benzoate]",92%,94%,,64%,,,,,,,
"CCOC(=O)c1c(C)[nH]c2ccc(OC3=CC(=O)C(Nc4ncnc5cc(OCCOC)c(OC)cc45)=CC3=O)cc12 [Example 45, ethyl 5-[(4-{[6-methoxy-7-(2-methoxyethoxy)quinazolin-4-yl]amino}-3,6-dioxocyclohexa-1,4-dien-1-yl)oxy]-2-methyl-1H-indole-3-carboxylate]",92%,93%,,99%,2.6 nM,,,,,,
"COCCOc1cc2ncnc(NC3=CC(=O)C(Oc4ccc(C)cc4-c4ccno4)=CC3=O)c2cc1OC [Example 47, 2-(2-isoxazol-5-yl-4-methylphenoxy)-5-{[6-methoxy-7-(2-methoxyethoxy)quinazolin-4-yl]amino}benzo-1,4-quinone]",86%,94%,,66%,,,,,,,
"COCCOc1cc2ncnc(NC3=CC(=O)C(Oc4ccc(C(=O)OCc5ccccc5)cc4)=CC3=O)c2cc1OC [Example 48, benzyl 4-[(4-{[6-methoxy-7-(2-methoxyethoxy)quinazolin-4-yl]amino}-3,6-dioxocyclohexa-1,4-dien-1-yl)oxy]benzoate]",86%,93%,,74%,,,,,,,
"COCCOc1cc2ncnc(NC3=CC(=O)C(Oc4ccc(C(=O)Cc5ccccc5)cc4)=CC3=O)c2cc1OC [Example 49, 2-{[6-methoxy-7-(2-methoxyethoxy)quinazolin-4-yl]amino}-5-[4-(phenylacetyl)phenoxy]benzo-1,4-quinone]",88%,93%,,90%,149 nM,,,,,,
"COCCOc1cc2ncnc(NC3=CC(=O)C(Oc4ccc(C(=O)/C=C/c5ccccc5)cc4)=CC3=O)c2cc1OC [Example 55, 2-{[6-methoxy-7-(2-methoxyethoxy)quinazolin-4-yl]amino}-5-{4-[(2E)-3-phenylprop-2-enoyl]phenoxy}benzo-1,4-quinone]",90%,93%,,,5.4 nM,,,,7%,61%,99%

# Continued, in another order:
"inhibition at 0.1 µM [1, 3]","inhibition at 1 µM [1, 3]","inhibition at 1 µM [1, 4]",inhibition at 1 µM (KDR),IC50 ([1]; ATP conc. 10 μM),Compound,inhibition at 0.1 µM ([1]; ATP conc. 10 μM),inhibition at 1 µM ([1]; ATP conc. 10 μM),inhibition at 1 µM ([1]; ATP conc. 1000 μM),inhibition at 0.1 µM ([2]; conc. 100 nM),inhibition at 1 µM ([2]; conc. 1000 nM),inhibition at 10 µM ([2]; conc. 10000 nM)
18%,49%,60%,56%,,"COc1cc2ncnc(NC3=CC(=O)C4(C)OC4C3=O)c2cc1OC (stereo not drawn) [Example 5, 4-[(6,7-dimethoxy-4-quinazolinyl)amino]-1-methyl-7-oxabicyclo[4.1.0]hept-3-ene-2,5-dione]",,,,,,
13%,2%,-30%,27%,,"COCCOc1cc2ncnc(NC3=C(Sc4ccccc4)C(=O)C=C(OC)C3=O)c2cc1OC [Example 18, 5-methoxy-3-{[6-methoxy-7-(2-methoxyethoxy)quinazolin-4-yl]amino}-2-(phenylthio)benzo-1,4-quinone]",,,,,,
41%,88%,88%,-10%,,"COCCOc1cc2ncnc(NC3=C(SCc4ccccc4)C(=O)C=C(OC)C3=O)c2cc1OC [Example 19, 2-(benzylthio)-5-methoxy-3-{[6-methoxy-7-(2-methoxyethoxy)quinazolin-4-yl]amino}benzo-1,4-quinone]",,,,,,
96%,92%,96%,0%,,"COCCOc1cc2ncnc(NC3=CC(=O)C(Sc4ccccc4)=CC3=O)c2cc1OC [Example 24, 2-{[6-methoxy-7-(2-methoxyethoxy)quinazolin-4-yl]amino}-5-(phenylthio)benzo-1,4-quinone]",,,,,,
63%,96%,98%,25%,34.4 nM,"COCCOc1cc2ncnc(NC3=CC(=O)C(Oc4cccc(C#N)c4)=CC3=O)c2cc1OC [Example 27, 3-[(4-{[6-methoxy-7-(2-methoxyethoxy)quinazolin-4-yl]amino}-3,6-dioxocyclohexa-1,4-dien-1-yl)oxy]benzonitrile]",,,,,,
55%,95%,97%,12%,,"COCCOc1cc2ncnc(NC3=CC(=O)C(Oc4cccc(C(C)=O)c4)=CC3=O)c2cc1OC [Example 34, 2-(3-acetylphenoxy)-5-{[6-methoxy-7-(2-methoxyethoxy)quinazolin-4-yl]amino}benzo-1,4-quinone]",,,,,,
93%,94%,,79%,,"COCCOc1cc2ncnc(NC3=CC(=O)C(Oc4ccc(Br)cc4)=CC3=O)c2cc1OC [Example 46, 2-(4-bromophenoxy)-5-{[6-methoxy-7-(2-methoxyethoxy)quinazolin-4-yl]amino}benzo-1,4-quinone]",,,,,,
